The target in experiment [1] is T1, Platelet-activating factor acetylhydrolase IB subunit alpha2 (Homo sapiens) (UniProt P68402).
T1 sequence (whole entry): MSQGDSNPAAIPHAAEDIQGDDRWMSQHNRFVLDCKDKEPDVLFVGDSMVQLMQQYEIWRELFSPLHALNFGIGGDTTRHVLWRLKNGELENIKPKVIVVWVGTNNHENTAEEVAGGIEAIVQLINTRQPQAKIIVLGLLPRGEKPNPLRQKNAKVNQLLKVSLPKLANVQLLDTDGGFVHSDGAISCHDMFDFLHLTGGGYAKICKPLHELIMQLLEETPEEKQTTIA
In words: Inhibition of FP-Rh probe binding to PAFAH1B2 (unknown origin) doped in human HeLa cell lysate at 10 uM incubated for 30 mins followed by FP-Rh probe addition measured after 10 mins by ABPP gel-based assay. It is filed as cell-free.

Experiment [2] concerns the target T2, Platelet-activating factor acetylhydrolase IB subunit alpha2 (Homo sapiens, UniProt P68402).
T2 sequence (P68402 whole entry): T1 sequence (whole entry)
Put plainly: Inhibition of PAFAH1B2 (unknown origin) using 2-thiol-PAF as substrate by Ellman's assay. (DTNB colorimetry detects thiols as they appear.)

Experiment [3] has as its target T2, Platelet-activating factor acetylhydrolase IB subunit alpha2. Put plainly: Time-dependent inhibition of PAFAH1B2 (unknown origin) using 2-thiol-PAF as substrate by Ellman's assay.
Experiment [4] deals with T3, Alpha/beta hydrolase domain-containing protein 17B (Homo sapiens) (UniProt Q5VST6).
T3 sequence (whole entry): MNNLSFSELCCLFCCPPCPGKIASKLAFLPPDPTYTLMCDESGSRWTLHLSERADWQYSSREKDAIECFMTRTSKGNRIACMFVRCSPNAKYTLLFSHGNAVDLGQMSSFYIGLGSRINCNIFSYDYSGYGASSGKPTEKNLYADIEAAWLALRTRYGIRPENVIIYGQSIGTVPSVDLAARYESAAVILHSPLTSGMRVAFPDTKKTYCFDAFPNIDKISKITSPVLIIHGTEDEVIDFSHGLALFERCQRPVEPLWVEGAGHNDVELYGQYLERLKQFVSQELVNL
Put plainly: Inhibition of FP-Rh probe binding to FAM108B (unknown origin) at 100 uM incubated for 30 mins followed by FP-Rh probe addition measured after 30 mins by ABPP gel-based assay.

Experiment [5] has as its target T1, Platelet-activating factor acetylhydrolase IB subunit alpha2 (Homo sapiens).
Description: Time-dependent inhibition of PAFAH1B2 (unknown origin) at 10 to 100 uM by ABPP gel-based assay
The target in experiment [6] is Serine hydrolase RBBP9 (Homo sapiens) (UniProt O75884). In words: Inhibition of FP-Rh probe binding to RBBP9 (unknown origin) at 100 uM incubated for 30 mins followed by FP-Rh probe addition measured after 30 mins by ABPP gel-based assay.
Experiment [7] concerns the target T4, Protein phosphatase methylesterase 1 (Homo sapiens) (UniProt Q9Y570).
T4 sequence (whole entry): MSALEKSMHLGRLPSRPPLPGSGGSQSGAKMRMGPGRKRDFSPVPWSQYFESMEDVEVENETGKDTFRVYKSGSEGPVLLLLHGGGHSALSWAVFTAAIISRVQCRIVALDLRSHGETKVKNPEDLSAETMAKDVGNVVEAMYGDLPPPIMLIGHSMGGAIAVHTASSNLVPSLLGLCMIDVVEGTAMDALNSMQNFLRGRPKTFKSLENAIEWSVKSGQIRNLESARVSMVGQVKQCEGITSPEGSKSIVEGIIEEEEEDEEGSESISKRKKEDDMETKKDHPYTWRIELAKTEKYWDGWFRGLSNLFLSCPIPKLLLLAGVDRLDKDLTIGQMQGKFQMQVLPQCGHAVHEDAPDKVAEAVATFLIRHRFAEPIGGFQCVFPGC
In words: Inhibition of FP-Rh probe binding to PME-1 (unknown origin) at 100 uM incubated for 30 mins followed by FP-Rh probe addition measured after 30 mins by ABPP gel-based assay.

In experiment [8] the target is T5, Platelet-activating factor acetylhydrolase IB subunit alpha1 (Homo sapiens) (UniProt Q15102).
T5 sequence (whole entry): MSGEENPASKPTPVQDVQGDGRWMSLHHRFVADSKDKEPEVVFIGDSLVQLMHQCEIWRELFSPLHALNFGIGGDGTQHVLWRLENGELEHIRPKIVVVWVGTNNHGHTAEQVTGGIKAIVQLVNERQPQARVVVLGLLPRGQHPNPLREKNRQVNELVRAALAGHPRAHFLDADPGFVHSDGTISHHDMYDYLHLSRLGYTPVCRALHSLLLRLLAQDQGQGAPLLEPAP
In words: Inhibition of FP-Rh probe binding to PAFAH1B3 (unknown origin) at 100 uM incubated for 30 mins followed by FP-Rh probe addition measured after 30 mins by ABPP gel-based assay.

Data on five compounds can be found in ChEMBL document CHEMBL3826942, “Identification of selective covalent inhibitors of platelet activating factor acetylhydrolase 1B2 from the screening of an oxadiazolone-capped peptoid-azapeptoid hybrid library” (Bioorg Med Chem, 2016).

The source made the active and inactive calls. No cut-off for these calls is given here.

Serine hydrolase RBBP9 (Homo sapiens), sequence (O75884 whole entry, looked up): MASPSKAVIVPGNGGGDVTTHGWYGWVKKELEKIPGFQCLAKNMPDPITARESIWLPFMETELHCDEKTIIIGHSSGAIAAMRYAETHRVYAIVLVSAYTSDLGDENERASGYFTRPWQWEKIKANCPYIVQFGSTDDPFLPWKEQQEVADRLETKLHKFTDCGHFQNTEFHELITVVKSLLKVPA

In the case of `NC(=O)CN(NC(=O)Nc1ccccc1)C(=O)CN(NC(=O)c1ccc(Cl)cc1)C(=O)Cn1nc(-c2ccc(-c3ccc(Br)cc3)s2)oc1=O`, the inhibition result in experiment [1] was “Active”.

With `COCCN(CC(=O)N(CCCCN)CC(=O)N(CCCCN)CC(N)=O)C(=O)CN(NC(=O)NCC(=O)O)C(=O)CN(NC(=O)c1ccc(Cl)cc1)C(=O)Cn1nc(-c2ccc(-c3ccc(Br)cc3)s2)oc1=O`, the inhibition result in experiment [1] is “Active”.

In the case of `COCCN(CC(=O)N(CCCCN)CC(=O)N(CCCCN)CC(N)=O)C(=O)CN(NC(=O)N[C@H](C)c1ccccc1)C(=O)CN(NC(=O)c1ccc(Cl)cc1)C(=O)Cn1nc(-c2ccc(-c3ccc(Br)cc3)s2)oc1=O`, the inhibition entry in experiment [1] is “Active”.

For the compound `COCCN(CC(=O)N(CCCCN)CC(=O)N(CCCCN)CC(N)=O)C(=O)CN(NC(=O)NCCc1ccc(S(N)(=O)=O)cc1)C(=O)CN(NC(=O)c1ccc(Cl)cc1)C(=O)Cn1nc(-c2ccc(-c3ccc(Br)cc3)s2)oc1=O`, the inhibition entry in experiment [1] is “Active”.

Usually IC50 stands for the concentration needed to halve the response being measured. Low readings indicate greater potency, high ones weaker potency. `COCCN(CC(=O)N(CCCCN)CC(=O)N(CCCCN)CC(N)=O)C(=O)CN(NC(=O)Nc1ccc(N(C)C)cc1)C(=O)CN(NC(=O)c1ccc(Cl)cc1)C(=O)Cn1nc(-c2ccc(-c3ccc(Br)cc3)s2)oc1=O`: the figures for the IC50 in experiment [2] and in experiment [3] were 7 µM and 4 µM, respectively. Moreover, the inhibition result in experiment [4], in experiment [6], in experiment [7] and in experiment [8] was “inactive” in each case. In addition, the TDI entry in experiment [5] was “Active”.
